Measurements as given in US20230111310A1, “CARBOXYLIC ACID DERIVATIVE-SUBSTITUTED IMINO ARYL COMPOUND, PREPARATION METHOD THEREFOR, HERBICIDAL COMPOSITION AND USE THEREOF” (Qingdao Kingagroot Chemical Compound Co., Ltd., priority 2020, published 2023).

Assays:
Test in all cases: Weeding effect in post-emergence stage
Format in all cases: in vivo
Echinochloa crusgalli = conditions: for Weeding effect in post-emergence stage, Echinochloa crusgalli: level of fresh weight growth control rate; for Weeding effect in post-emergence stage, Echinochloa crusgalli (level): fresh weight control rate level
Outline: (§1)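 Pot-grown weeds were sprayed at the 2-3 leaf stage, 2 weeks after sowing, with compound in acetone plus Tween 80 and 1.5 liter/ha methyl oleate emulsifiable concentrate, diluted in water. Doses were 500, 250, 125, 60, 30, 15, 7.5 g/ha. Growth control was scored after 3 weeks in greenhouse; mean of three replicates.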

Abutilon theophrasti = conditions: for Weeding effect in post-emergence stage, Abutilon theophrasti: level of fresh weight growth control rate; for Weeding effect in post-emergence stage, Abutilon theophrasti (level): fresh weight control rate level
Outline: as §1

Eleusine indica = conditions: for Weeding effect in post-emergence stage, Eleusine indica: level of fresh weight growth control rate; for Weeding effect in post-emergence stage, Eleusine indica (level): fresh weight control rate level
Outline: as §1

Setaria viridis = conditions: for Weeding effect in post-emergence stage, Setaria viridis: level of fresh weight growth control rate; for Weeding effect in post-emergence stage, Setaria viridis (level): fresh weight control rate level
Outline: as §1

Digitaria sanguinalis = conditions: for Weeding effect in post-emergence stage, Digitaria sanguinalis: level of fresh weight growth control rate; for Weeding effect in post-emergence stage, Digitaria sanguinalis (level): fresh weight control rate level
Outline: as §1

Alopecurus japonicus = conditions: for Weeding effect in post-emergence stage, Alopecurus japonicus: level of fresh weight growth control rate; for Weeding effect in post-emergence stage, Alopecurus japonicus (level): fresh weight control rate level
Outline: as §1

Row | SMILES | Weeding effect in post-emergence stage, Echinochloa crusgalli (level) (Echinochloa crusgalli; Dose 60 g/ha) | Weeding effect in post-emergence stage, Abutilon theophrasti (level) (Abutilon theophrasti; Dose 60 g/ha) | Weeding effect in post-emergence stage, Eleusine indica (level) (Eleusine indica; Dose 60 g/ha) | Weeding effect in post-emergence stage, Setaria viridis (level) (Setaria viridis; Dose 60 g/ha) | Weeding effect in post-emergence stage, Digitaria sanguinalis (level) (Digitaria sanguinalis; Dose 60 g/ha) | Weeding effect in post-emergence stage, Alopecurus japonicus (level) (Alopecurus japonicus; Dose 60 g/ha) | further results
1 | COC(=O)[C@H](O/N=C/c1cc(-n2c(=O)cc(C(F)(F)F)n(C)c2=O)c(F)cc1Cl)c1ccccc1 [337(R)] | – | – | – | – | – | – | Weeding effect in post-emergence stage, Echinochloa crusgalli (Echinochloa crusgalli; Dose 15 g/ha): 5 (Level 5: growth control rate is above 85%); Weeding effect in post-emergence stage, Abutilon theophrasti (Abutilon theophrasti; Dose 15 g/ha): 5 (Level 5: growth control rate is above 85%); Weeding effect in post-emergence stage, Eleusine indica (Eleusine indica; Dose 15 g/ha): 5 (Level 5: growth control rate is above 85%); Weeding effect in post-emergence stage, Setaria viridis (Setaria viridis; Dose 15 g/ha): 5 (Level 5: growth control rate is above 85%); Weeding effect in post-emergence stage, Digitaria sanguinalis (Digitaria sanguinalis; Dose 15 g/ha): 5 (Level 5: growth control rate is above 85%); Weeding effect in post-emergence stage, Alopecurus japonicus (Alopecurus japonicus; Dose 15 g/ha): 5 (Level 5: growth control rate is above 85%)
2 | COC(=O)[C@@H](C)O/N=C/c1cc(-n2c(=O)cc(C(F)(F)F)n(C)c2=O)c(F)cc1C(F)(F)F [342(R)] | – | – | – | – | – | – | Weeding effect in post-emergence stage, Echinochloa crusgalli (Echinochloa crusgalli; Dose 15 g/ha): 5 (Level 5: growth control rate is above 85%); Weeding effect in post-emergence stage, Abutilon theophrasti (Abutilon theophrasti; Dose 15 g/ha): 5 (Level 5: growth control rate is above 85%); Weeding effect in post-emergence stage, Eleusine indica (Eleusine indica; Dose 15 g/ha): 5 (Level 5: growth control rate is above 85%); Weeding effect in post-emergence stage, Setaria viridis (Setaria viridis; Dose 15 g/ha): 5 (Level 5: growth control rate is above 85%); Weeding effect in post-emergence stage, Digitaria sanguinalis (Digitaria sanguinalis; Dose 15 g/ha): 5 (Level 5: growth control rate is above 85%); Weeding effect in post-emergence stage, Alopecurus japonicus (Alopecurus japonicus; Dose 15 g/ha): 5 (Level 5: growth control rate is above 85%)
3 | COC(=O)[C@@H](C)O/N=C/c1cc(-n2c(=O)cc(C(F)(F)F)n(C)c2=O)c(F)cc1C#N [344(R)] | – | – | – | – | – | – | Weeding effect in post-emergence stage, Echinochloa crusgalli (Echinochloa crusgalli; Dose 15 g/ha): 5 (Level 5: growth control rate is above 85%); Weeding effect in post-emergence stage, Abutilon theophrasti (Abutilon theophrasti; Dose 15 g/ha): 5 (Level 5: growth control rate is above 85%); Weeding effect in post-emergence stage, Eleusine indica (Eleusine indica; Dose 15 g/ha): 5 (Level 5: growth control rate is above 85%); Weeding effect in post-emergence stage, Setaria viridis (Setaria viridis; Dose 15 g/ha): 5 (Level 5: growth control rate is above 85%); Weeding effect in post-emergence stage, Digitaria sanguinalis (Digitaria sanguinalis; Dose 15 g/ha): 5 (Level 5: growth control rate is above 85%); Weeding effect in post-emergence stage, Alopecurus japonicus (Alopecurus japonicus; Dose 15 g/ha): 5 (Level 5: growth control rate is above 85%)
4 | COC(=O)[C@@H](C)O/N=C/c1cc(-n2c(=O)cc(C(F)(F)F)n(C)c2=S)c(F)cc1Cl [347(R)] | – | – | – | – | – | – | Weeding effect in post-emergence stage, Echinochloa crusgalli (Echinochloa crusgalli; Dose 30 g/ha): 5 (Level 5: growth control rate is above 85%); Weeding effect in post-emergence stage, Abutilon theophrasti (Abutilon theophrasti; Dose 30 g/ha): 5 (Level 5: growth control rate is above 85%); Weeding effect in post-emergence stage, Eleusine indica (Eleusine indica; Dose 30 g/ha): 5 (Level 5: growth control rate is above 85%); Weeding effect in post-emergence stage, Setaria viridis (Setaria viridis; Dose 30 g/ha): 5 (Level 5: growth control rate is above 85%); Weeding effect in post-emergence stage, Digitaria sanguinalis (Digitaria sanguinalis; Dose 30 g/ha): 5 (Level 5: growth control rate is above 85%); Weeding effect in post-emergence stage, Alopecurus japonicus (Alopecurus japonicus; Dose 30 g/ha): 5 (Level 5: growth control rate is above 85%)
5 | COC(=O)[C@@H](C)O/N=C/c1cc(-n2c(=S)cc(C(F)(F)F)n(C)c2=S)c(F)cc1Cl [351(R)] | 5 (Level 5: growth control rate is above 85%) | 5 (Level 5: growth control rate is above 85%) | 5 (Level 5: growth control rate is above 85%) | 5 (Level 5: growth control rate is above 85%) | 5 (Level 5: growth control rate is above 85%) | 5 (Level 5: growth control rate is above 85%) | –
6 | COC(=O)[C@@H](C)O/N=C/c1cc(-n2c(=S)cc(C(F)(F)F)n(C)c2=O)c(F)cc1Br [388(R)] | – | – | – | – | – | – | Weeding effect in post-emergence stage, Echinochloa crusgalli (level) (Echinochloa crusgalli; Dose 15 g/ha): 5 (Level 5: growth control rate is above 85%); Weeding effect in post-emergence stage, Abutilon theophrasti (level) (Abutilon theophrasti; Dose 15 g/ha): 5 (Level 5: growth control rate is above 85%); Weeding effect in post-emergence stage, Eleusine indica (level) (Eleusine indica; Dose 15 g/ha): 5 (Level 5: growth control rate is above 85%); Weeding effect in post-emergence stage, Setaria viridis (level) (Setaria viridis; Dose 15 g/ha): 5 (Level 5: growth control rate is above 85%); Weeding effect in post-emergence stage, Digitaria sanguinalis (level) (Digitaria sanguinalis; Dose 15 g/ha): 5 (Level 5: growth control rate is above 85%); Weeding effect in post-emergence stage, Alopecurus japonicus (level) (Alopecurus japonicus; Dose 15 g/ha): 5 (Level 5: growth control rate is above 85%)
7 | COC(=O)[C@@H](C)O/N=C/c1cc(-n2c(=S)cc(C(F)(F)F)n(C)c2=S)c(F)cc1C#N [390(R)] | – | – | – | – | – | – | Weeding effect in post-emergence stage, Echinochloa crusgalli (level) (Echinochloa crusgalli; Dose 15 g/ha): 5 (Level 5: growth control rate is above 85%); Weeding effect in post-emergence stage, Abutilon theophrasti (level) (Abutilon theophrasti; Dose 15 g/ha): 5 (Level 5: growth control rate is above 85%); Weeding effect in post-emergence stage, Eleusine indica (level) (Eleusine indica; Dose 15 g/ha): 5 (Level 5: growth control rate is above 85%); Weeding effect in post-emergence stage, Setaria viridis (level) (Setaria viridis; Dose 15 g/ha): 5 (Level 5: growth control rate is above 85%); Weeding effect in post-emergence stage, Digitaria sanguinalis (level) (Digitaria sanguinalis; Dose 15 g/ha): 5 (Level 5: growth control rate is above 85%); Weeding effect in post-emergence stage, Alopecurus japonicus (level) (Alopecurus japonicus; Dose 15 g/ha): 5 (Level 5: growth control rate is above 85%)
8 | COC(=O)[C@@H](C)O/N=C/c1cc(-n2c(=S)cc(C(F)(F)F)n(C)c2=S)c(F)cc1Br [391(R)] | 5 (Level 5: growth control rate is above 85%) | 5 (Level 5: growth control rate is above 85%) | 5 (Level 5: growth control rate is above 85%) | 5 (Level 5: growth control rate is above 85%) | 5 (Level 5: growth control rate is above 85%) | 5 (Level 5: growth control rate is above 85%) | –
9 | COC(=O)[C@@H](C)O/N=C/c1cc(-n2c(=S)cc(C(F)(F)F)n(C)c2=S)c(F)cc1C(F)(F)F [392(R)] | 5 (Level 5: growth control rate is above 85%) | 5 (Level 5: growth control rate is above 85%) | 5 (Level 5: growth control rate is above 85%) | 5 (Level 5: growth control rate is above 85%) | 5 (Level 5: growth control rate is above 85%) | 5 (Level 5: growth control rate is above 85%) | –
10 | COC(=O)[C@@H](C)O/N=C/c1cc(-n2c(=S)cc(C(F)(F)F)n(C)c2=S)c(F)cc1C#N [393(R)] | 5 (Level 5: growth control rate is above 85%) | 5 (Level 5: growth control rate is above 85%) | 5 (Level 5: growth control rate is above 85%) | 5 (Level 5: growth control rate is above 85%) | 5 (Level 5: growth control rate is above 85%) | 5 (Level 5: growth control rate is above 85%) | –
11 | COC(=O)[C@@H](C)O/N=C/c1cc(-n2c(=O)cc(C(F)(F)F)n(C)c2=S)c(F)cc1Br [394(R)] | 5 (Level 5: growth control rate is above 85%) | 5 (Level 5: growth control rate is above 85%) | 5 (Level 5: growth control rate is above 85%) | 5 (Level 5: growth control rate is above 85%) | 5 (Level 5: growth control rate is above 85%) | 5 (Level 5: growth control rate is above 85%) | –
12 | COC(=O)[C@@H](C)O/N=C/c1cc(-n2c(=O)cc(C(F)(F)F)n(C)c2=S)c(F)cc1C(F)(F)F [395(R)] | 5 (Level 5: growth control rate is above 85%) | 5 (Level 5: growth control rate is above 85%) | 5 (Level 5: growth control rate is above 85%) | 5 (Level 5: growth control rate is above 85%) | 5 (Level 5: growth control rate is above 85%) | 5 (Level 5: growth control rate is above 85%) | –
13 | COC(=O)[C@@H](C)O/N=C/c1cc(-n2c(=O)cc(C(F)(F)F)n(C)c2=S)c(F)cc1C#N [396(R)] | 5 (Level 5: growth control rate is above 85%) | 5 (Level 5: growth control rate is above 85%) | 5 (Level 5: growth control rate is above 85%) | 5 (Level 5: growth control rate is above 85%) | 5 (Level 5: growth control rate is above 85%) | 5 (Level 5: growth control rate is above 85%) | –
